According to US12421276B2 (priority 2016, dated 2025):
Values joined by “and” are separate entries in the source; they are usually repeats but may differ in a detail not shown here. Equal values may be shown once. Read-outs that look alike come from different tables or passages of the source.

What was measured:
[1] = Plasma stability study, human plasma; type: in vitro ADME; details: human, plasma
Experimental: (§1) Human and rat plasma (K2 EDTA) were obtained from Bioreclamation.
(§2) Compounds were dissolved as 0.3 mM DMSO stocks. Compounds were transferred to the plasma at 1 μM on a 96-well deep well plate. After mixing, samples were transferred to several 96-well plates (25 μL/well), and incubated at 37° C. The extent of metabolism was calculated as the disappearance of the test compound, compared to the 0-min control reaction incubations. Propantheline was included as a positive control to verify assay performance.
(§3) At each of the time points, 150 μL of quench solution (50% acetonitrile, 50% methanol with 0.05% formic acid) with internal standard (bucetin for positive ESI mode and warfarin for negative ESI mode) was transferred to each well. Plates were sealed and centrifuged at 4° C. for 15 minutes at 4000 rpm. The supernatant was transferred to fresh plates for LC/MS/MS analysis.
(§4) Elution conditions are detailed in the table below.
(§5) Initial rates of the clearance of test compounds were calculated using linear regression of semi-log plot of % remaining of compounds versus time. The elimination rate constant (equals to −slope) of the linear regression was then used to determine t½ values.

[2] = Plasma stability study, rat plasma; type: in vitro ADME; details: rat, plasma
Experimental: as §1, §2, §3, §4, §5

Caco-2 cells = assay: Caco-2 permeability study with or without P-gp inhibitor GF120918; details: for Abs. Quotient: (Papp A-B with inhibitor − without inhibitor)/Papp A-B with inhibitor; for Caco-2 Cells Permeability Recovery Rate: 1 hr, pH 7.4
[3] = Metabolic stability in simulated intestinal fluid (SIF), pH 6.8, with or without pancreatin; type: in vitro ADME
Experimental: (§6) Metabolic Stability in SIF and SGF (Simulated Intestinal and Gastric Fluid)
Buffer 3=SIF without enzyme
Buffer 4=SIF with 1% pancreatin
(§7) SIF was prepared freshly with 8.7 mM NaOH, 28.65 mM NaH2PO4, 105.85 mM NaCl, with a final pH of 6.8. SGF was prepared freshly with 34.2 mM NaCl, with a final pH of 1.2. Enzymes such as pepsin or pancreatin were added to some buffers. Human and rat plasma (K2 EDTA) were purchased from BioreclamationIVT.
(§8) Compounds were dissolved as 1.5 mM DMSO stocks. Compounds were transferred to SIF, SGF, or plasma at 5 μM on a 96-well deep well plate. After mixing, samples were transferred to several 96-well plates (25 μL/well), and incubated at 37° C. The extent of metabolism was calculated as the disappearance of the test compound, compared to the 0-min control reaction incubations. Candesartan Cilexetil and omeprazole were included as positive controls for SIF and SGF, respectively, to verify assay performance.
as §3, with “(100% acetonitrile” for “(50% acetonitrile, 50% methanol”, “0.1%” for “0.05%”
as §4, §5

[4] = Metabolic stability in simulated gastric fluid (SGF), pH 1.2, with or without pepsin; type: in vitro ADME
Experimental: as §6
Buffer 1=SGF without enzyme
Buffer 2=SGF with 0.32% pepsin
as §7, §8
as §3, with “(100% acetonitrile” for “(50% acetonitrile, 50% methanol”, “0.1%” for “0.05%”
as §4, §5

[5] = type: in vivo, rat
Experimental: • 1. Eight (8) male JVC SD rats (purchased from Charles River Lab) were monitored daily for body condition and health status during the 3-5 days acclimation period. The rats were randomly assigned into […] (n=4). • 2. […] The dosed rats were individually placed into a metabolic cage, and have access to food and water at all times. The urine from each rat was collected daily from the metabolic cages, and kept in dry ice. • 4. At predose (0 min), 5 min, 15 min, 30 min, 1 hr, 2 hr, 8 hr, and 24 hr post dosing, approximately 200 ul blood samples were collected from each rat and transferred to EDTA tubes. • 5. The blood samples in EDTA vials were centrifuged at 4° C. and 6,000 rpm for 10 minutes to generate ˜100 μl of plasma per sample. Blood samples were processed as quickly as possible and remain no longer than 2 min at room temperature and no longer than 15 minutes at 4° C. prior to processing. • 6. All samples were transferred for bioanalytic assay using LCMS

[6] = +GF120918 (10 μM), 10 μM compound
[7] = Rat, PO, 10 mg/kg equiv., n = 4, analyte: Parent (BASE STRUCTURE)
[8] = Rat, PO, 10 mg/kg equiv., n = 4, analyte: Prodrug
[9] = rat, dosed as prodrug, 10 mg/kg equivalent of Base Structure, analyte Parent (Base Structure), Average
[10] = rat, dosed as prodrug, 10 mg/kg equivalent of Base Structure, analyte Parent (Base Structure), Combined (average ± std. dev.)
[11] = rat, dosed as prodrug, 10 mg/kg equivalent of Base Structure, analyte Parent (Base Structure), individual animals, 10 mg/kg
[12] = rat, dosed as prodrug, 10 mg/kg equivalent of Base Structure, analyte Prodrug, Average
[13] = rat, dosed as prodrug, 10 mg/kg equivalent of Base Structure, analyte Prodrug, Combined (average ± std. dev.)
[14] = rat, dosed as prodrug, 10 mg/kg equivalent of Base Structure, analyte Prodrug, individual animals, 10 mg/kg

CCCCCC(=O)NC(Cc1ccc(OC(=O)CN2CCOCC2)cc1)C(=O)NC(C(=O)NCCCCCC(N)=O)C(C)CC (stereo not shown) [Compound A23]
Plasma Stability Half-Life [1]: 0.522 h | Plasma Stability Half-Life [2]: 8.2 min | Abs. Quotient (Caco-2 cells): 0.78 | Caco-2 Cells Permeability Recovery Rate (Caco-2 cells; [6]): 96% | Caco-2 Cells Permeability Recovery Rate (Caco-2 cells; −GF120918, 10 μM compound): 91%

CCCCCC(=O)NC(Cc1ccc(OP(=O)(OCCN(C)C)OCCN(C)C)cc1)C(=O)NC(C(=O)NCCCCCC(N)=O)C(C)CC (stereo not shown) [Compound A18]
SIF Stability (pH 6.8) Half-Life (min) ([3]; +Pancreatin (1%), 5 μM, 37° C.): 39.4 min | SIF Stability (pH 6.8) 0 min ([3]; +Pancreatin (1%), 5 μM, 37° C.): 100% | SIF Stability (pH 6.8) 60 min ([3]; +Pancreatin (1%), 5 μM, 37° C.): 40% | SIF Stability (pH 6.8) 120 min ([3]; +Pancreatin (1%), 5 μM, 37° C.): 12% | SIF Stability (pH 6.8) 240 min ([3]; +Pancreatin (1%), 5 μM, 37° C.): 25% | SIF Stability (pH 6.8) Half-Life (min) ([3]; −Pancreatin, 5 μM, 37° C.): 30.2 min | SIF Stability (pH 6.8) 0 min ([3]; −Pancreatin, 5 μM, 37° C.): 100% | SIF Stability (pH 6.8) 60 min ([3]; −Pancreatin, 5 μM, 37° C.): 25% | SIF Stability (pH 6.8) 120 min ([3]; −Pancreatin, 5 μM, 37° C.): 17% | SIF Stability (pH 6.8) 240 min ([3]; −Pancreatin, 5 μM, 37° C.): 8% | SGF Stability (pH 1.2) Half-Life (min) ([4]; +Pepsin (0.32%), 5 μM, 37° C.): 46.4 min | SGF Stability (pH 1.2) 0 min ([4]; +Pepsin (0.32%), 5 μM, 37° C.): 100% | SGF Stability (pH 1.2) 60 min ([4]; +Pepsin (0.32%), 5 μM, 37° C.): 52% | SGF Stability (pH 1.2) 120 min ([4]; +Pepsin (0.32%), 5 μM, 37° C.): 17% | SGF Stability (pH 1.2) 240 min ([4]; +Pepsin (0.32%), 5 μM, 37° C.): 18% | SGF Stability (pH 1.2) Half-Life (min) ([4]; −Pepsin, 5 μM, 37° C.): 42.6 min | SGF Stability (pH 1.2) 0 min ([4]; −Pepsin, 5 μM, 37° C.): 100% | SGF Stability (pH 1.2) 60 min ([4]; −Pepsin, 5 μM, 37° C.): 51% | SGF Stability (pH 1.2) 120 min ([4]; −Pepsin, 5 μM, 37° C.): 14% | SGF Stability (pH 1.2) 240 min ([4]; −Pepsin, 5 μM, 37° C.): 15% | AUC0-24 [5, 7]: 4.1 ± 3.8 ng·h/mL | AUC0-inf (ng · h/mL) [5, 7]: 6.8 ± 4^ ng · h/mL | Cmax [5, 7]: 3.1 ± 2.5 ng/mL | Tmax [5, 7]: 0.2 ± 0.1 h | half-life [5, 7]: 3.5 ± 2.6 h | AUC0-24 [5, 8]: 4.9 ± 2.6 ng·h/mL | Cmax [5, 8]: 3.8 ± 0.1 ng/mL | Tmax [5, 8]: 1.5 ± 0.7 h | AUC 0-inf_obs [5, 9]: 6.838 ng·h/mL | AUC 0-t [5, 9]: 4.14 ng·h/mL | AUMC 0-inf_obs [5, 9]: 46.7 ng/ml * h^2 | Cl/F_obs [5, 9]: 1.944 (mg/kg)/(ng/ml)/h | Cmax [5, 9]: 3.14 ng/mL | Lambda_z [5, 9]: 0.523 h⁻¹ | MRT 0-inf_obs [5, 9]: 5.185 h | Tlag [5, 9]: 0 h | Tmax [5, 9]: 0.165 h | Vz/F_obs [5, 9]: 6.707 (mg/kg)/(ng/ml) | t1/2 [5, 9]: 3.49 h | AUC 0-inf_obs [5, 10]: 6.8 ± 4 ng·h/mL | AUC 0-t [5, 10]: 4.1 ± 3.8 ng·h/mL | AUMC 0-inf_obs [5, 10]: 46.7 ± 47.2 ng/ml * h^2 | Cl/F_obs [5, 10]: 1.9 ± 1.1 (mg/kg)/(ng/ml)/h | Cmax [5, 10]: 3.1 ± 2.5 ng/mL | Lambda_z [5, 10]: 0.5 ± 0.7 h⁻¹ | MRT 0-inf_obs [5, 10]: 5.2 ± 3.9 h | Tlag [5, 10]: 0 ± 0 h | Tmax [5, 10]: 0.2 ± 0.1 h | Vz/F_obs [5, 10]: 6.7 ± 3.2 (mg/kg)/(ng/ml) | t1/2 [5, 10]: 3.5 ± 2.6 h | Tlag ([5]; rat, dosed as prodrug, 10 mg/kg equivalent of Base Structure, analyte Parent (Base Structure), individual animals): 0 h | AUC 0-inf_obs [5, 11]: 3.49 ng·h/mL and 3.404 ng·h/mL and 9.232 ng·h/mL and 11.23 ng·h/mL | AUC 0-t [5, 11]: 1.664 ng·h/mL and 3.218 ng·h/mL and 1.903 ng·h/mL and 9.777 ng·h/mL | AUMC 0-inf_obs [5, 11]: 10.68 ng/ml * h^2 and 2.586 ng/ml * h^2 and 76.05 ng/ml * h^2 and 97.48 ng/ml * h^2 | Cl/F_obs [5, 11]: 2.866 (mg/kg)/(ng/ml)/h and 2.938 (mg/kg)/(ng/ml)/h and 1.083 (mg/kg)/(ng/ml)/h and 0.8908 (mg/kg)/(ng/ml)/h | Cmax [5, 11]: 1.3 ng/mL and 3.37 ng/mL and 1.27 ng/mL and 6.62 ng/mL | Lambda_z [5, 11]: 0.3303 h⁻¹ and 1.518 h⁻¹ and 0.1231 h⁻¹ and 0.1201 h⁻¹ | MRT 0-inf_obs [5, 11]: 3.06 h and 0.7598 h and 8.238 h and 8.683 h | Tmax [5, 11]: 0.25 h (2×) and 0.08 h (2×) | Vz/F_obs [5, 11]: 8.676 (mg/kg)/(ng/ml) and 1.935 (mg/kg)/(ng/ml) and 8.802 (mg/kg)/(ng/ml) and 7.417 (mg/kg)/(ng/ml) | t1/2 [5, 11]: 2.099 h and 0.4565 h and 5.632 h and 5.771 h | AUC 0-t [5, 12]: 4.949 ng·h/mL | Cmax [5, 12]: 3.76 ng/mL | Tlag [5, 12]: 0 h | Tmax [5, 12]: 1.5 h | AUC 0-t [5, 13]: 4.9 ± 2.6 ng·h/mL | Cmax [5, 13]: 3.8 ± 0.1 ng/mL | Tlag [5, 13]: 0 ± 0 h | Tmax [5, 13]: 1.5 ± 0.7 h | Tlag ([5]; rat, dosed as prodrug, 10 mg/kg equivalent of Base Structure, analyte Prodrug, individual animals): 0 h | AUC 0-t [5, 14]: 6.8 ng·h/mL and 3.099 ng·h/mL | Cmax [5, 14]: 3.84 ng/mL and 3.68 ng/mL | Tmax [5, 14]: 2 h and 1 h | Abs. Quotient (Caco-2 cells): 0.54 | Caco-2 Cells Permeability Recovery Rate (Caco-2 cells; [6]): 90% | Caco-2 Cells Permeability Recovery Rate (Caco-2 cells; −GF120918, 10 μM compound): 48%

CCCCCC(=O)NC(Cc1ccc(OC(=O)CN(C)C)cc1)C(=O)NC(C(=O)NCCCCCC(N)=O)C(C)CC (stereo not shown) [Compound A25]
Plasma Stability Half-Life [1]: 0.168 h | Plasma Stability Half-Life [2]: 8.2 min | SIF Stability (pH 6.8) Half-Life (min) ([3]; simulated gi fluid, pH 6.8): 34.7 min | SGF Stability (pH 1.2) Half-Life (min) ([4]; simulated gi fluid, pH 1.2): 389.4 min | Abs. Quotient (Caco-2 cells): 0.77 | Caco-2 Cells Permeability Recovery Rate (Caco-2 cells; [6]): 83% | Caco-2 Cells Permeability Recovery Rate (Caco-2 cells; −GF120918, 10 μM compound): 91%
